Consider 9 compounds from ChEMBL document CHEMBL1201862, “PubChem BioAssay data set” (2004).

Some test systems named below: 786-0; A549; EKVX; HCT-15; IGROV-1; KM12; LOX IMVI; MDA-MB-231; NCI-H23; OVCAR-3; OVCAR-4; OVCAR-8; PC-3; SF-295; SK-OV-3; SR; T47D; UACC-62; SN12C.
Assay in all cases: NCI tumour cell line growth inhibition, 48 h

SMILES strings stand for the structures.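 Compound exposure: 48 hours, 5 concentrations, 96-well plates. Here, GI50 denotes the concentration required for 50% inhibition of growth.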 Active and inactive are the calls of the source. Cut-off read from the data, not from the text of the source: active = GI50 up to about 1.1 µM and inactive = higher. Some results are limits rather than exact numbers.

For `N#Cc1c(-c2ccc([N+](=O)[O-])cc2)cc(-c2ccc(Nc3ccnc4cc(Cl)ccc34)cc2)[nH]c1=O`, the GI50 in the experiment on 786-0 is > 100 µM (inactive); in the experiment with A549 it was > 100 µM (inactive); with EKVX, > 100 µM (inactive); with HCT-15, over 100 µM; with IGROV-1 it was > 100 µM (inactive); in the experiment with KM12, 4.01 µM (inactive). The GI50 in the experiment with LOX IMVI was > 100 µM (inactive); with MDA-MB-231 it was > 100 µM (inactive); in the experiment with NCI-H23, 93.3 µM (inactive); in the experiment with OVCAR-3 it was > 100 µM (inactive); with OVCAR-4, > 100 µM (inactive); in the experiment with OVCAR-8, > 100 µM (inactive). In addition, the GI50 in the experiment on PC-3, in the experiment with SF-295, in the experiment on SK-OV-3, with SR, with T47D and in the experiment on UACC-62 was > 100 µM (inactive) throughout.

Consider `O=C1NCC2(CCN(CC3COc4ccccc4O3)CC2)N1c1ccccc1` (stereo not drawn), for which the GI50 was > 100 µM (inactive) in the experiment with 786-0; > 100 µM (inactive) in the experiment on A549; > 100 µM (inactive) with EKVX; over 100 µM with HCT-15; > 100 µM (inactive) in the experiment with IGROV-1; > 100 µM (inactive) in the experiment with KM12. Moreover, the GI50 with LOX IMVI, in the experiment on MDA-MB-231, with NCI-H23, in the experiment with OVCAR-3, in the experiment with OVCAR-4 and with OVCAR-8 was > 100 µM (inactive) in each case. The GI50 with PC-3, with SF-295, in the experiment with SK-OV-3, with SN12C, with SR and in the experiment on T47D was > 100 µM (inactive) in each case. Besides, in the experiment on UACC-62, the GI50 is > 100 µM (inactive).

Turning to `C(=N\Nc1ccccc1)/c1nc2ccccc2nc1/C=N/Nc1ccccc1`, the GI50 in the experiment with 786-0 was 15.6 µM (inactive); with A549 it was 14.3 µM (inactive); with EKVX, 22.1 µM (inactive); in the experiment with HCT-15 it was 4.39 µM; in the experiment with IGROV-1, 12.1 µM (inactive); in the experiment with KM12 it was 13 µM (inactive). Besides, the GI50 in the experiment on LOX IMVI was 9.25 µM (inactive); in the experiment with NCI-H23 it was 13.3 µM (inactive); in the experiment with OVCAR-3 it was 16.6 µM (inactive); in the experiment with OVCAR-4 it was 27.8 µM (inactive); in the experiment on OVCAR-8 it was 6.75 µM (inactive); in the experiment on SF-295, 16.2 µM (inactive). In addition, the GI50 with SK-OV-3 was 22 µM (inactive); in the experiment on SN12C it was 16.2 µM (inactive); in the experiment on SR, 19.9 µM (inactive); in the experiment on UACC-62 it was 12.9 µM (inactive).

For `Cc1ccc(-n2nnc3c(NNc4ccccc4)n[nH]c(=O)c32)cc1`, the GI50 was 67.3 µM (inactive) in the experiment on 786-0; 55.6 µM (inactive) in the experiment with A549; 80.7 µM (inactive) in the experiment with EKVX; over 100 µM in the experiment on HCT-15; > 100 µM (inactive) in the experiment on KM12; > 100 µM (inactive) with LOX IMVI. In addition, the GI50 with MDA-MB-231 is 96.8 µM (inactive); with NCI-H23 it was 72.1 µM (inactive); in the experiment with OVCAR-4 it was 36.9 µM (inactive); with OVCAR-8 it was 49.8 µM (inactive); in the experiment with PC-3 it was 78.2 µM (inactive); in the experiment on SF-295, 55.2 µM (inactive). The GI50 in the experiment on SN12C and in the experiment with SR was > 100 µM (inactive) each time.

For `O=C(O)c1ccc([I+]c2ccccc2)cc1`, the GI50 is > 100 µM (inactive) in the experiment on 786-0; > 100 µM (inactive) in the experiment on A549; > 100 µM (inactive) in the experiment with EKVX; over 100 µM in the experiment with HCT-15; > 100 µM (inactive) in the experiment with IGROV-1; > 100 µM (inactive) with KM12. The GI50 with LOX IMVI, with NCI-H23, with OVCAR-3, with OVCAR-4, in the experiment on OVCAR-8 and in the experiment on SF-295 was > 100 µM (inactive) in each case. The GI50 with SK-OV-3, in the experiment on SN12C, with SR and in the experiment on UACC-62 was > 100 µM (inactive) each time.

In the case of `CCOc1ccc(/N=N/c2ccc3oc(=O)c(/C(C)=N/NC(=O)CC(=O)Nc4cccc(OC)c4)cc3c2)cc1`, the GI50 in the experiment with 786-0 was 10.5 µM (inactive); in the experiment on A549 it was 28.2 µM (inactive); in the experiment on EKVX it was 19.4 µM (inactive); in the experiment on HCT-15 it was 30.3 µM; with IGROV-1, 23.6 µM (inactive); in the experiment on KM12, 20.8 µM (inactive). Further, the GI50 in the experiment on LOX IMVI was 17.2 µM (inactive); in the experiment with NCI-H23, 17.5 µM (inactive); with OVCAR-3, 13.4 µM (inactive); in the experiment on OVCAR-4, 16.3 µM (inactive); in the experiment with OVCAR-8 it was 18.7 µM (inactive); in the experiment on SF-295, 19 µM (inactive). Further, the GI50 is 38.8 µM (inactive) in the experiment on SK-OV-3, 15.6 µM (inactive) in the experiment with SN12C, 2.64 µM (inactive) with SR and 13.2 µM (inactive) in the experiment with UACC-62.

Turning to `N#Cc1ccccc1NC(=O)C(=O)C(C(=O)c1ccncc1)C1OC(=O)c2ccccc21` (stereo not drawn), the GI50 in the experiment on 786-0 was > 100 µM (inactive); in the experiment with A549, > 100 µM (inactive); in the experiment with EKVX, > 100 µM (inactive); in the experiment on HCT-15 it was over 100 µM; in the experiment with IGROV-1 it was > 100 µM (inactive); in the experiment with KM12 it was > 100 µM (inactive). The GI50 with LOX IMVI, in the experiment with NCI-H23, with OVCAR-3, with OVCAR-4, in the experiment with OVCAR-8 and with SF-295 was > 100 µM (inactive) in each case. Further, the GI50 in the experiment on SK-OV-3, in the experiment on SN12C, in the experiment on SR and in the experiment with UACC-62 was > 100 µM (inactive) throughout.

Regarding `COC1=CC(C2c3cc4c(cc3[C@@H](Nc3ccc(F)cc3)C3COC(=O)[C@H]23)OCO4)=CC(=O)C1=O` (stereo partly drawn), the GI50 in the experiment with 786-0 is 3.29 µM (inactive); in the experiment with A549, 1.36 µM (inactive); with EKVX it was 20.5 µM (inactive); with HCT-15, 11.1 µM; in the experiment with IGROV-1, 14.4 µM (inactive); with KM12, 13.3 µM (inactive). Moreover, the GI50 was 7.78 µM (inactive) in the experiment on LOX IMVI; 2.88 µM (inactive) in the experiment on NCI-H23; 27.7 µM (inactive) with OVCAR-3; 39.8 µM (inactive) in the experiment on OVCAR-4; 10.1 µM (inactive) in the experiment on OVCAR-8; 3.21 µM (inactive) in the experiment with SF-295. Also, the GI50 in the experiment with SK-OV-3 was 4.46 µM (inactive); in the experiment on SN12C it was 4.32 µM (inactive); with SR, 0.506 µM (active); with UACC-62, 5.68 µM (inactive).

In the case of `C1=N\CCN2CCN(CC/N=C\c3ccc(cc3)OCc3cccc(n3)COc3ccc/1cc3)CC2`, the GI50 is > 50 µM (inactive) in the experiment with 786-0; > 50 µM (inactive) in the experiment on A549; > 50 µM (inactive) in the experiment on EKVX; over 50 µM in the experiment on HCT-15; > 50 µM (inactive) in the experiment on IGROV-1; > 50 µM (inactive) in the experiment on KM12. Also, the GI50 in the experiment on MDA-MB-231 is > 50 µM (inactive); with NCI-H23, > 50 µM (inactive); in the experiment with OVCAR-3, 28.8 µM (inactive); with OVCAR-4, > 50 µM (inactive); in the experiment with OVCAR-8 it was > 50 µM (inactive); with PC-3, > 50 µM (inactive). For the same compound, the GI50 is 46.2 µM (inactive) in the experiment with SF-295; > 50 µM (inactive) with SK-OV-3; > 50 µM (inactive) with SN12C; > 50 µM (inactive) with SR; > 50 µM (inactive) in the experiment with UACC-62.
